# Reference: patent US10640495B2, “Heterocycle derivatives having TrkA inhibitory activity” (Shionogi & Co., Ltd., priority 2015, dated 2020)
# Molecular target: human TrkA (Homo sapiens (Human), UniProt P04629)
# Assay: Human TrkA inhibition assay (Test Example 2)
# Assay type: biochemical
# Details: Table 157, human TrkA inhibition; read-out: IC50
# Summary of the method: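 Recombinant TrkA (1 nmol/L) was preincubated 15 min at room temperature with compound in HEPES/MgCl2/DTT buffer, then reacted with FL-peptide 27 (1.5 μmol/L) and ATP (500 μmol/L) for 120 min at 37 °C. After EDTA stop, substrate phosphorylation was read by microfluidic mobility shift. IC50 came from logistic regression over 3-fold dilution series.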
# Chain of human TrkA (P04629 440-796): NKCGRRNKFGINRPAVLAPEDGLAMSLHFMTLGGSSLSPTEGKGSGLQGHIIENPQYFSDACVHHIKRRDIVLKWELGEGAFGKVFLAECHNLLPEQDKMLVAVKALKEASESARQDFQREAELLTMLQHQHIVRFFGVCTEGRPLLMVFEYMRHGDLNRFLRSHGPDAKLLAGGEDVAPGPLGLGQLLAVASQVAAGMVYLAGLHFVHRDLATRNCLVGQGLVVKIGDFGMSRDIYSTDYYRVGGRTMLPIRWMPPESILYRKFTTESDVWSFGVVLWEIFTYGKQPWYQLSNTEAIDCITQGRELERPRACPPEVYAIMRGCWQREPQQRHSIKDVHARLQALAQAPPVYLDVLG
row,IC50 [nM],SMILES
1,< 100,COCCN1C[C@@H](NC(=O)Nc2c(C)c(-c3cnc4oc(C)nc4c3)nn2-c2ccccc2)[C@H](c2ccnc(F)c2)O1 (racemic) [Compound I-596]
2,< 100,COCCN1C[C@@H](NC(=O)Nc2c(C)c(-c3cnc4c(c3)OCO4)nn2-c2ccccc2)[C@H](c2ccnc(F)c2)O1 (racemic) [Compound I-606]
3,< 100,CCN1C[C@@H](NC(=O)Nc2c(C)c(OCC3CCN(C(=O)CO)CC3)nn2-c2ccccc2)[C@H](c2ccc(F)c(F)c2)O1 (racemic) [Compound I-607]
4,< 100,CCN1C[C@@H](NC(=O)Nc2c(C)c(OCC3CCN(C(=O)COC)CC3)nn2-c2ccccc2)[C@H](c2ccc(F)c(F)c2)O1 (racemic) [Compound I-608]
5,< 100,CCN1CCC(COc2nn(-c3ccccc3)c(NC(=O)N[C@@H]3CN(CC)O[C@H]3c3ccc(F)c(F)c3)c2C)CC1 (racemic) [Compound I-609]
6,< 100,CCN1C[C@@H](NC(=O)Nc2c(C)c(OCCCN(C)C)nn2-c2ccccc2)[C@H](c2ccc(F)c(F)c2)O1 (racemic) [Compound I-610]
7,< 100,CCN1C[C@@H](NC(=O)Nc2c(C)c(-c3ccc4nc(C(N)=O)cn4c3)nn2-c2ccccc2)[C@H](c2ccc(F)c(F)c2)O1 (racemic) [Compound I-611]
8,< 100,CCN1C[C@@H](NC(=O)Nc2c(C)c(-c3cnc(C(N)=O)c(F)c3)nn2-c2ccccc2)[C@H](c2ccc(F)c(F)c2)O1 (racemic) [Compound I-612]
9,< 100,CCN1C[C@@H](NC(=O)Nc2c(C)c(-c3cnc(C(=O)NC)c(F)c3)nn2-c2ccccc2)[C@H](c2ccc(F)c(F)c2)O1 (racemic) [Compound I-613]
10,< 100,COCCN1C[C@@H](NC(=O)Nc2c(C)c(-c3cnc4nc(C)oc4c3)nn2-c2ccccc2)[C@H](c2ccnc(F)c2)O1 (racemic) [Compound I-616]
11,> 1000,COc1ncc(-c2nn(-c3ccccc3)c(NC(=O)N[C@@H]3CN(CCC(F)(F)F)O[C@H]3c3ccc(F)c(F)c3)c2C)cn1 (racemic) [Compound I-621]
12,> 1000,Cc1c(-c2cnc3c(cnn3C)c2)nn(-c2ccccc2)c1NC(=O)N[C@@H]1CN(CCC(F)(F)F)O[C@H]1c1ccc(F)c(F)c1 (racemic) [Compound I-622]
13,100 to 1000,CNC(=O)c1cc(-c2nn(-c3ccccc3)c(NC(=O)N[C@@H]3CN(CCC(F)(F)F)O[C@H]3c3ccc(F)c(F)c3)c2C)cnc1OC (racemic) [Compound I-623]
14,< 100,CCN1C[C@@H](NC(=O)Nc2c(C)c(-c3ccc4nccn4c3)nn2-c2ccccc2)[C@H](c2ccc(F)c(F)c2)O1 (racemic) [Compound I-624]
15,< 100,CCN1C[C@@H](NC(=O)Nc2c(C)c(-c3ccn4ccnc4c3)nn2-c2ccccc2)[C@H](c2ccc(F)c(F)c2)O1 (racemic) [Compound I-625]
16,< 100,CCN1C[C@@H](NC(=O)Nc2c(C)c(-c3cnc4c(c3)OCCO4)nn2-c2ccccc2)[C@H](c2ccc(F)c(F)c2)O1 (racemic) [Compound I-626]
17,< 100,CCN1C[C@@H](NC(=O)Nc2c(C)c(-c3cnc(N4CC(OC)C4)nc3)nn2-c2ccccc2)[C@H](c2ccc(F)c(F)c2)O1 (racemic) [Compound I-628]
18,< 100,Cc1c(-c2cccnc2)nn(-c2ccccc2)c1NC(=O)N[C@@H]1CN(CC(F)F)O[C@H]1c1ccc(F)c(F)c1 (racemic) [Compound I-629]

row,IC50 [nM],SMILES
1,< 100,Cc1c(-c2ccncc2)nn(-c2ccccc2)c1NC(=O)N[C@@H]1CN(CC(F)F)O[C@H]1c1ccc(F)c(F)c1 (racemic) [Compound I-630]
2,< 100,CCN1C[C@@H](NC(=O)Nc2c(C)c(OC3CCN(C)CC3)nn2-c2ccccc2)[C@H](c2ccc(F)c(F)c2)O1 (racemic) [Compound I-631]
3,100 to 1000,CCN1C[C@@H](NC(=O)Nc2c(C)c(OC3CN(C)C3)nn2-c2ccccc2)[C@H](c2ccc(F)c(F)c2)O1 (racemic) [Compound I-632]
4,< 100,COCCN1C[C@@H](NC(=O)Nc2c(C)c(OCC(N)=O)nn2-c2ccccc2)[C@H](c2ccnc(F)c2)O1 (racemic) [Compound I-633]
5,< 100,CNC(=O)COc1nn(-c2ccccc2)c(NC(=O)N[C@@H]2CN(CCOC)O[C@H]2c2ccnc(F)c2)c1C (racemic) [Compound I-634]
6,< 100,COCCN1C[C@@H](NC(=O)Nc2c(C)c(OCC(=O)NC3CC3)nn2-c2ccccc2)[C@H](c2ccnc(F)c2)O1 (racemic) [Compound I-635]
7,100 to 1000,CCN1C[C@@H](NC(=O)Nc2c(C)c(CCN(C)C)nn2-c2ccccc2)[C@H](c2ccc(F)c(F)c2)O1 (racemic) [Compound I-642]
8,< 100,CCN1C[C@@H](NC(=O)Nc2c(C)c(OCc3cc(=O)ccn3C)nn2-c2ccccc2)[C@H](c2ccc(F)c(F)c2)O1 (racemic) [Compound I-644]
9,< 100,CCN1C[C@@H](NC(=O)Nc2c(C)c(OCC(=O)NC)nn2-c2ccccc2)[C@H](c2ccc(F)c(F)c2)O1 (racemic) [Compound I-646]
10,< 100,CCN1C[C@@H](NC(=O)Nc2c(C)c(OCC(=O)N(C)C)nn2-c2ccccc2)[C@H](c2ccc(F)c(F)c2)O1 (racemic) [Compound I-647]
11,< 100,CCN1C[C@@H](NC(=O)Nc2c(C)c(OCC(=O)NC3CC3)nn2-c2ccccc2)[C@H](c2ccc(F)c(F)c2)O1 (racemic) [Compound I-648]
12,100 to 1000,CCN1C[C@@H](NC(=O)Nc2c(C)c(OCC(=O)NCCN(C)C)nn2-c2ccccc2)[C@H](c2ccc(F)c(F)c2)O1 (racemic) [Compound I-650]
13,< 100,CCN1C[C@@H](NC(=O)Nc2c(C)c(OCC(=O)NCCO)nn2-c2ccccc2)[C@H](c2ccc(F)c(F)c2)O1 (racemic) [Compound I-651]
14,< 100,CCN1C[C@@H](NC(=O)Nc2c(C)c(OCC(=O)NCC(C)(C)O)nn2-c2ccccc2)[C@H](c2ccc(F)c(F)c2)O1 (racemic) [Compound I-652]
15,< 100,Cc1c(OCC2CCN(C)CC2)nn(-c2ccccc2)c1NC(=O)N[C@@H]1CN(CC2CC2)O[C@H]1c1ccc(F)c(F)c1 (racemic) [Compound I-653]
16,< 100,CCCN1C[C@@H](NC(=O)Nc2c(C)c(OCC3CCN(C)CC3)nn2-c2ccccc2)[C@H](c2ccc(F)c(F)c2)O1 (racemic) [Compound I-654]
17,100 to 1000,CCN1C[C@@H](NC(=O)Nc2c(C)c(OCC(C)(C)O)nn2-c2ccccc2)[C@H](c2ccc(F)c(F)c2)O1 (racemic) [Compound I-656]

row,SMILES,IC50 [nM]
1,CCN1C[C@@H](NC(=O)Nc2c(C)c(OCC(=O)N3CCN(C)CC3)nn2-c2ccccc2)[C@H](c2ccc(F)c(F)c2)O1 (racemic) [Compound I-649],< 100

# Same assay, conditions: human TrkA 1 nmol/L, ATP 500 μmol/L, 120 min at 37° C.; read-out: IC50 values (TrkA phosphorylation inhibition)
row,IC50 [nM],SMILES
1,6.8,COCCN1C[C@@H](NC(=O)Nc2c(C)c(-c3cnc(OCF)nc3)nn2-c2ccccc2)[C@H](c2ccnc(F)c2)O1 (racemic) [Compound I-620]
2,4.8,CCN1C[C@@H](NC(=O)Nc2c(C)c(-c3ccc(OC)nc3)nn2-c2ccccc2)[C@H](c2ccc(F)c(F)c2)O1 (racemic) [Compound I-627]
3,68,CCN1C[C@@H](NC(=O)Nc2c(C)c(OCC(N)=O)nn2-c2ccccc2)[C@H](c2ccc(F)c(F)c2)O1 (racemic) [Compound I-645]
4,5,CCN1C[C@@H](NC(=O)Nc2c(C)c(C3=CCN(C(=O)CO)CC3)nn2-c2ccccc2)[C@H](c2ccc(F)c(F)c2)O1 (racemic) [Compound I-655]
